{"source": "patent US8450333B2", "about": "“Molecules for regulating cell death” (The Regents of The University of California, priority 2003, dated 2013)", "key": {"mammalian COS cells [1]": {"tested_on": "mammalian COS cells", "test": "Mitochondrial fragmentation induced by staurosporine (STS) in COS cells", "assay_type": "cell-based", "conditions": "COS cells stimulated with STS; mfisi-1 at 50 μM; n=100", "source_text": "As indicated above, we observed that mfisi-1 causes changes in mitochondrial morphology in mammalian cells that are consistent with a block in mitochondrial fission. Thus, we examined the effects of mfisi-1 on mitochondrial fragmentation caused by the intrinsic apoptotic stimulus staurosporine (STS) in mammalian COS cells. […] These observations indicate that mfisi-1 retards apoptosis-stimulated Drp1-dependent mitochondrial fission."}, "recombinant Dnm1": {"target": "T1, recombinant Dnm1 (Saccharomyces cerevisiae, UniProt P54861)", "T1 construct": "made in house; host or cells: insect cells (baculovirus expression system)", "T1 sequence (P54861 1-757)": "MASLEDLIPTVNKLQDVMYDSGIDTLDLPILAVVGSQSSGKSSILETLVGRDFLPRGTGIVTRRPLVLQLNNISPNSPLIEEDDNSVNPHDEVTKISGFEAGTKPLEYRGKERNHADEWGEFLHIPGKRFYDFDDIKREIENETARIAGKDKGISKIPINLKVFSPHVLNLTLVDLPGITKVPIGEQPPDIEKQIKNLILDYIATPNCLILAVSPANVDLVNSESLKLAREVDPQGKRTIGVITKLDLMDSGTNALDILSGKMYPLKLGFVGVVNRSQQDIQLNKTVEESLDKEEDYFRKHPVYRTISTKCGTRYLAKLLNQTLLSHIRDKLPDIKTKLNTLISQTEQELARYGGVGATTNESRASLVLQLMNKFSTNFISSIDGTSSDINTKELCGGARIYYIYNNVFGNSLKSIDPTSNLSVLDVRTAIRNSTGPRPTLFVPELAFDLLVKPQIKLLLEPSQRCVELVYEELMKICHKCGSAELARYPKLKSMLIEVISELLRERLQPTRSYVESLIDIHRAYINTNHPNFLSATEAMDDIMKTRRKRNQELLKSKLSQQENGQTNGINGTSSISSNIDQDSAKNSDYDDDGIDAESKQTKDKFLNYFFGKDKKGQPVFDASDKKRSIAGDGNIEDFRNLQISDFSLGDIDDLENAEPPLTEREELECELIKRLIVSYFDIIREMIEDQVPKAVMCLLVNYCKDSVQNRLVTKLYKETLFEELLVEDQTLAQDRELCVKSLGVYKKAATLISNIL", "test": "Dnm1 GTPase activity, radioactive TLC-based assay", "assay_type": "biochemical, yeast", "source_text": "In order to discern a detailed mechanism for mitochondrial fission, we have begun to purify and characterize activities associated with known fission components, with the ultimate goal of reconstituting this event in vitro. Towards this goal, we have successfully expressed and purified active recombinant Dnm1 (the yeast mitochondrial fission DRP) from insect cells, using a baculovirus expression system. Using an established radioactive TLC-based assay for GTPase activity, we characterized the kinetic properties of recombinant Dnm1 under low salt conditions (FIG. 10A). […] The Km for GTP for Dnm1 is near 200 μM, greater than that observed for assembled dynamin (˜10 μM). The significance of this difference as it relates to the function of these DRPs will be interesting to determine.\nDetermining the mechanism of mfisi-1 inhibition is critical for assessing how DRPs function in mitochondrial fission. We will perform standard steady-state kinetic assays to determine the mechanism of inhibition by mfisi-1 using established GTPase assays in the presence of variable concentrations of substrate (GTP) and mfisi-1. […] Nucleotides are resolved using thin layer chromatography, and quantification of GTP and GDP product is performed using a Phosphorimager. All rates are calculated using time points where product formation is linear over time."}, "mammalian COS cells [2]": {"tested_on": "mammalian COS cells", "test": "Mitochondrial morphology in mammalian COS cells", "assay_type": "cell-based", "source_text": "Drp1, the mammalian mitochondrial fission DRP, has a high degree of similarity and identity to its yeast ortholog, Dnm1. This encouraged us to exploit the chemical genetic approach and examine the effects of mfisi-1 on mitochondrial morphology in mammalian cells. In mammalian cells, it has been established that when fission is retarded by expression of dominant-negative Drp1, mitochondria become progressively more interconnected, form net-like structures, and collapse into degenerate perinuclear structures in cells. Remarkably, the addition of mfisi-1 to mammalian COS cells in culture caused a rapid and reversible change in mitochondrial morphology equivalent to that observed upon expression of dominant negative Drp1 in double-binded experiments (FIG. 12, n=100: untreated; 0% collapsed nets, 14% loose nets, 70% reticular, 15% fragmented; mfisi-1 treated; n=100, 19% collapsed nets, 45% loose nets, 36% reticular, 0% fragmented). The EC50 of mfisi-1 effects on mitochondrial morphology in mammalian cells is similar to that observed for the effect of mfisi-1 on mitochondrial morphology in yeast (EC50=10 µM)."}}}
{"smiles": "COc1cc(-n2c(S)nc3ccccc3c2=O)c(Cl)cc1Cl", "note": "[mfisi-1, 3-(2,4-Dichloro-5-methoxy-phenyl)-2-mercapto-3H-quinazolin-4-one]", "values": [{"measurement": "% collapsed nets", "setting": "mammalian COS cells [1]", "value": 0, "unit": "%"}, {"measurement": "% fragmented", "setting": "mammalian COS cells [1]", "value": 46, "unit": "%"}, {"measurement": "% loose nets", "setting": "mammalian COS cells [1]", "value": 8, "unit": "%"}, {"measurement": "% reticular", "setting": "mammalian COS cells [1]", "value": 46, "unit": "%"}, {"measurement": "IC50", "setting": "recombinant Dnm1", "value": "~10", "unit": "µM"}, {"measurement": "mode of inhibition versus GTP", "setting": "recombinant Dnm1; mfisi-1 at its IC50, GTP 10 μM-2 mM", "value": "NOT a pure competitive inhibitor"}, {"measurement": "% collapsed nets", "setting": "mammalian COS cells [2]; COS cells, n=100", "value": 19, "unit": "%"}, {"measurement": "% fragmented", "setting": "mammalian COS cells [2]; COS cells, n=100", "value": 0, "unit": "%"}, {"measurement": "% loose nets", "setting": "mammalian COS cells [2]; COS cells, n=100", "value": 45, "unit": "%"}, {"measurement": "% reticular", "setting": "mammalian COS cells [2]; COS cells, n=100", "value": 36, "unit": "%"}, {"measurement": "EC50", "setting": "mammalian COS cells [2]; COS, mammalian cells, similar to yeast, read-out: EC50, effects on mitochondrial morphology", "value": 10, "unit": "µM"}]}
